This note sets out measurements from patent US20020019374A1, “Salicylohydrazide derivatives, processes and intermediates for their preparation, compositions comprising them, and their use” (priority 2000, published 2002).

Usually melting point stands for the temperature of the solid-liquid transition.

Take `C/C(=N\NC(=O)c1cccc([N+](=O)[O-])c1O)c1ccccc1` [I-1, 3-nitrosalicylic (1-phenylethylidene)hydrazide]: the melting point fell in the range of 163 to 168 °C.
